# Patent US20250283058A1, “USE OF p55-GAMMA GENE AND/OR p55-GAMMA PROTEIN AS TARGET IN MAINTAINING CARDIAC IRON HOMEOSTASIS AND TREATING RELATED DISEASE” (BEIJING FRIENDSHIP HOSPITAL, CAPITAL MEDICAL UNIVERSITY, priority 2024, published 2025)
# Where a SMILES comes first, the peptide text is derived from it. The star is where a group is joined. Cbz = O=C(OCc1ccccc1)*
# Key:
# [1] = test system: I/R injury-induced cardiac ferroptosis; assay: I/R injury model in mice with ferroptosis inhibitors (TTC staining, serum LDH, MDA); type: in vivo; settings: for cardiac MDA content / serum LDH concentration: mice after I/R injury; for cardiac MDA content: compared with WT mice; for serum LDH concentration / I/R-induced myocardial infarct size: effect comparable to p55γ^h-TG mice; for I/R-induced myocardial infarct size: mice, TTC staining
# Protocol: p55γ transgenic (p55γ^h-TG) mice were established according to routine methods in the art. Male wild-type (WT) C57 mice and p55γ^h-TG mice aged 8 to 12 weeks were selected to set up a sham operation control group and experimental groups, respectively, to construct I/R injury models. TTC staining, MDA detection, and oxidized lipid detection were conducted according to conventional methods in the art. To determine whether p55γ protein could inhibit I/R injury-induced cardiac ferroptosis, the experiments were carried out with the following groups: mice treated with saline, mice treated with Ferrostatin-1 (Fer-1) and Dexrazoxane (DXZ), and p55γ^h-TG mice. The cardiac infarction area of mice was detected by conventional TTC staining and the serum LDH concentration was assayed by LDH release kits. […] In addition, lipid peroxidation in the hearts of mice in each group was detected by intracellular MDA content assay. […] Given that the peroxidation of polyunsaturated fatty acids (PUFAs) is an important step in ferroptosis, and in order to further clarify the role of p55γ gene in ferroptosis, oxidized lipid substances in the hearts of mice from the […] group and WT-I/R group were measured using liquid chromatography-tandem mass spectrometry (LC-MS/MS).
# [2] = test system: IRP2; assay: IRP2 mRNA and protein levels in cardiomyocytes (qPCR, Western blot); type: cell-based; settings: Ad-p55γ-infected cardiomyocytes treated with MG132
# Protocol: To elucidate whether the p55γ gene could regulate the mRNA stability of Tfr1through the IRPs-IRE system, the expression of IRP2 in NRVMs was evaluated. Ad-p55γ was used to infect cardiomyocytes, and qPCR and Western blot were conducted to detect Ad-p55γ-infected cardiomyocytes for 48 h.
# Ad-p55γ-infected cardiomyocytes were treated with MG132. […] In order to further study whether p55γ could promote the ubiquitination and degradation of IRP2, the target gene sequences of p55γ, IRP2, and UB were found in NCBI. A pcDNA3.1(+) vector was used, sequence analysis software was used to find the restriction endonuclease cleavage sites present in the target gene sequences, and plasmids for p55γ, IRP2, and […] were constructed. The plasmids were separately transfected into HEK293T cells, which were collected 24 h later and IRP2 ubiquitination was detected. Western blot was conducted to detect the ubiquitination level of IRP2.
# [3] = test system: p55γ gene; assay: p55γ gene mRNA and protein levels in cardiomyocytes treated with ferroptosis inducers (qPCR, Western blot); type: cell-based; settings: NRVMs treated with ferroptosis inducer vs vehicle group
# Protocol: The cultured cardiomyocytes were divided into: an erastin group and a vehicle group, where the NRVMs were treated with erastin in the erastin group, while the cardiomyocytes in the vehicle group were not treated in any way. The mRNA and protein levels of p55γ gene in the two groups of cardiomyocytes were detected by conventional quantitative polymerase chain reaction (qPCR) and Western blot methods.
# The mRNA and protein levels of p55γ gene in the two groups of cardiomyocytes were detected by conventional qPCR and Western blot methods.
# [4] = test system: cardiomyocytes (NRVMs); assay: H/R injury model in cardiomyocytes with perhexiline; type: cell-based
# Protocol: (§1) In view of the importance of p55γ in combating ferroptosis, it is particularly important to find potential activators of p55γ for the treatment of I/R injury. Therefore, potential activators of p55γ were predicted using existing small molecule drug libraries. Subsequently, molecular docking analysis was conducted based on the crystal structure of p55γ. […] To determine the potential role of perhexiline in cardiomyocyte ferroptosis, experiments were first done in cardiomyocytes. […] The effect of perhexiline was further tested in the context of H/R injury model.
# [5] = test system: Tfr1 and IRP2; assay: Western blot of Tfr1 and IRP2 after perhexiline treatment of cardiomyocytes; type: cell-based; settings: 24 h treatment
# Protocol: as §1
# [6] = test system: I/R injury-induced cardiac ferroptosis; assay: I/R injury model in mice pretreated with perhexiline (TTC staining, MDA); type: in vivo; settings: intraperitoneal injection 24 h and 2 h before I/R
# Protocol: p55γ knockout (p55γ^−/−) mice were established according to routine methods in the art. Male wild-type (WT) C57 mice and p55γ^−/− mice aged 8 to 12 weeks were selected to set up a sham operation control group and experimental groups, respectively, and the mice were intraperitoneally injected with perhexiline 24 h and 2 h before constructing the I/R injury model. TTC staining and MDA detection were conducted according to conventional methods in the art.
# [7] = cardiomyocytes, H/R injury model
# [8] = with overexpression of IRP2 (IRP2 adenovirus)
smiles,measurement,setting,value
"C[C@@H](CN1CC(=O)NC(=O)C1)N1CC(=O)NC(=O)C1 [DXZ, Dexrazoxane]",cardiac MDA content,[1],significantly reduced
same,serum LDH concentration,[1],reduced
same,I/R-induced myocardial infarct size,[1],reduced
"CCOC(=O)c1ccc(NC2CCCCC2)c(N)c1 [Fer-1, Ferrostatin-1]",cardiac MDA content,[1],significantly reduced
same,serum LDH concentration,[1],reduced
same,I/R-induced myocardial infarct size,[1],reduced
CC(C)C[C@@H](C=O)NC(=O)[C@H](CC(C)C)NC(=O)[C@H](CC(C)C)NC(=O)OCc1ccccc1 [MG132] (Cbz-Leu-Leu-Leu-aldehyde),p55γ-mediated decrease in IRP2 protein,[2],effectively eliminated
COC(=O)c1ccc([C@@H]2c3[nH]c4ccccc4c3C[C@@H](C(=O)OC)N2C(=O)CCl)cc1 [RSL3],protein level of p55γ gene,[3]; Western blot,down-regulated
same,mRNA level of p55γ gene,[3]; qPCR,down-regulated
C1CCC(C(CC2CCCCN2)C2CCCCC2)CC1 (stereo not shown) [perhexiline],decrease in cell activity induced by H/R injury,[4]; [7],significantly blocked
same,increase in ptgs2 mRNA levels induced by H/R injury,[4]; [7],significantly blocked
same,inhibitory effect on H/R induced decrease in cell activity,[4]; [8],could block the inhibitory effect
same,inhibitory effect on H/R induced increase in ptgs2 mRNA levels,[4]; [8],could block the inhibitory effect
same,protein level of IRP2,[5],significantly down-regulated
same,protein level of Tfr1,[5],significantly down-regulated
same,level of MDA in the heart,[6]; WT mice,reduce
same,myocardial infarct size,"[6]; WT mice, TTC staining",significantly reduce
same,cardioprotective effect (level of MDA in the heart),[6]; p55γ^−/− mice,abolished
same,cardioprotective effect (myocardial infarct size),[6]; p55γ^−/− mice,abolished
